Measurements from US20050069887A1, “Dna synthesis promoters dna polymerase-associated factors and utilization thereof” (priority 2001, published 2005).

Tests used:
EX-Taq DNA polymerase = experiment: PCR using EX-Taq with oxalate ion and betaine (Example 2-1); format: biochemical; conditions: 2 mM potassium oxalate, 0.5 M betaine, FIG. 11
Protocol: Oxalate ion and betaine were investigated for their synergistic effectiveness in amplification of a target DNA which cannot be usually amplified by PCR using EX-Taq DNA polymerase (TAKARA). Potassium oxalate was added to the PCR buffer attached to EX-Taq DNA polymerase to attain a final concentration of 2 mM. Also used were 0.2 mM dNTPs, 0.3 μM of a pair of primers consisting of the sequences of ID NOs:14 and 15 respectively, and 1.0 U EX-Taq DNA polymerase. 20 ng of genomic DNA derived from human cell line K562 was used as a template. This reaction mixture was subjected to PCR by using GeneAmp2400 (PE Applied Biosystems) to investigate the influence of varying the concentration of betaine added on the PCR results. The PCR conditions were as follows: 1preliminary reaction of 94° C. for 2 minutes, and then 35 cycles of 94° C. for 15 seconds, 60° C. for 30 seconds and 68° C. for 8.5 minutes.

nPfu DNA polymerase [1] = biological target: T1, nPfu DNA polymerase (Pyrococcus furiosus, UniProt P61875); experiment: PCR using nPfu with oxalate ion and betaine (Example 2-2); format: biochemical; conditions: 2 mM potassium oxalate, FIG. 12
T1 construct: α-Type Enzyme (Native Pfu); purchased STRATAGENE
T1 sequence (P61875 1-775): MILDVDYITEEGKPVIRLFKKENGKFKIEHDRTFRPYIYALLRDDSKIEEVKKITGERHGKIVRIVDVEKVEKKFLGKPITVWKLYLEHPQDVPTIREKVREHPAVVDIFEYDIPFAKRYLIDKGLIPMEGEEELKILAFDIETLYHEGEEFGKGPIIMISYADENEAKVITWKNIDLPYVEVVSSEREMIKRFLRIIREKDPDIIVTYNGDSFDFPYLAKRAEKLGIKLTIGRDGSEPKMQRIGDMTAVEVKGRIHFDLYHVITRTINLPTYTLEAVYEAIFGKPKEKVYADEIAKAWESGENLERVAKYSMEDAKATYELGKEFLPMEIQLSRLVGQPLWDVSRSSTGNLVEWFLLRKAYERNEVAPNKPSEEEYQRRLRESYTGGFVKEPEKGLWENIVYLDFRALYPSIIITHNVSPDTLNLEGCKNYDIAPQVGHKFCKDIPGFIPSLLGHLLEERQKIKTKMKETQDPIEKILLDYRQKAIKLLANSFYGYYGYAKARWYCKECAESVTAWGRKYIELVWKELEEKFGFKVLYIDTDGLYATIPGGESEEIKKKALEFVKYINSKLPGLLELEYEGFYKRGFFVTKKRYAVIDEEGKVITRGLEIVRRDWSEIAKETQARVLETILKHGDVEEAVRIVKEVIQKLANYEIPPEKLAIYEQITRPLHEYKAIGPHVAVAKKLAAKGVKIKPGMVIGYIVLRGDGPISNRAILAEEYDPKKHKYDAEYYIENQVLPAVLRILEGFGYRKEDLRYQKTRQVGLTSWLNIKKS
Protocol: Oxalate ion and betaine were investigated for their synergistic effectiveness in amplification of a target DNA which cannot be usually amplified by PCR using nPfu polymerase. Potassium oxalate was added to the PCR buffer (20 mM Tris-HCl(pH: 8.75), 10 mM KCl, 10 mM (NH4)2SO4, 2 mM MgSO41 0.1% Triton X-100, 100 μg/ml BSA) supplied with nPfu (STRATAGENE) to attain a final concentration of 2 mM. Also used were 0.2 mM dNTPs, 0.3 μM of a pair of primers of SEQ ID Nos:16 and 17, and 2.5 U nPfu DNA polymerase. 20 ng of genomic DNA derived from human cell line K562 was used as a template. This reaction mixture was subjected to PCR by using GeneAmp2400 (PE Applied Biosystems) to investigate the influence of varying the concentration of betaine added on the PCR results. The PCR conditions were as follows: 1 preliminary cycle of 94° C. for 2 minutes, and then 35 cycles of 94° C. for 15 seconds, 60° C. for 30 seconds and 68° C. for 8.5 minutes.

KOD-plus DNA polymerase = biological target: T2, KOD-plus DNA polymerase (Thermococcus kodakarensis, UniProt P77933, DEL407-766/DEL853-1389); experiment: PCR using KOD-plus with oxalate ion and betaine (Example 2-3); format: biochemical, Thermococcus kodakaraensis KOD1; conditions: 2 mM potassium oxalate, FIG. 13
T2 construct: purchased Toyobo
Protocol: Oxalate ion and betaine were investigated for their synergistic effectiveness in amplification of a target DNA which cannot be amplified by normal PCR, using KOD-plus DNA polymerase, i.e. a hot start enzyme which is a mixture of KOD (α-type enzyme) and two kinds of KOD antibodies. Potassium oxalate was added to the PCR buffer supplied with KOD-plus (TOYOBO CO., LTD.) to attain a final concentration of 2 mM. Also used were 0.2 mM dNTPs and 0.3 μM of a pair of primers of SEQ ID NOs: 14 and 15. 20 ng of genomic DNA derived from human cell line K562 was used as a template. This reaction mixture was subjected to PCR by using GeneAmp2400 (PE Applied Biosystems) to investigate the influence of varying the concentration of betaine on the PCR results. The PCR conditions were as follows: 1 preliminary reaction of 94° C. for 2 minutes, and then 35 cycles of 94° C. for 15 seconds, 60° C. for 30 seconds and 68° C. for 8.5 minutes.

nPfu DNA polymerase [2] = biological target: T1, nPfu DNA polymerase; experiment: PCR using nPfu DNA polymerase with added salts (Examples 1-5, 1-6); format: biochemical; conditions: salt at 4-6 mM of ion equivalent, FIG. 7
Protocol: The effect produced by the addition of oxalate ion in PCR was investigated using nPfu polymerase. A PCR buffer (20 mM Tris-HCl (pH 8.75), 10 mM KCl, 10 mM (NH4) 2SO4, 2 mM MgSO4, 0.1% Triton X-100, 100 μg/ml BSA) attached to nPfu (STRATAGENE), 0.2 mM of dNTPs, and 0.3 μM of a pair of primers of SEQ ID NOs:12, and 13 were used. PCR was performed by using 2.5 U nPfu DNA polymerase and 20 ng of genomic DNA derived from human cell line K562 as a template, with the influence on the PCR result caused by varying the concentration of oxalate ion being investigated. PCR was performed by using GeneAmp2400 (PE Applied Biosystems) with the following conditions: 1 preliminary reaction of 94° C. for 2 minutes, and then 35 cycles of 94° C. for 15 seconds, 60° C. for 30 seconds and 68° C. for 8 minutes.
Salts (potassium chloride, potassium acetate, potassium oxalate, potassium sulfate) were tested for their effectiveness in PCR using nPfu DNA polymerase under the same conditions as Example 1-5.

T2 sequence (P77933 other isoform, or with tags, fused parts or gaps DEL407-766/DEL853-1389): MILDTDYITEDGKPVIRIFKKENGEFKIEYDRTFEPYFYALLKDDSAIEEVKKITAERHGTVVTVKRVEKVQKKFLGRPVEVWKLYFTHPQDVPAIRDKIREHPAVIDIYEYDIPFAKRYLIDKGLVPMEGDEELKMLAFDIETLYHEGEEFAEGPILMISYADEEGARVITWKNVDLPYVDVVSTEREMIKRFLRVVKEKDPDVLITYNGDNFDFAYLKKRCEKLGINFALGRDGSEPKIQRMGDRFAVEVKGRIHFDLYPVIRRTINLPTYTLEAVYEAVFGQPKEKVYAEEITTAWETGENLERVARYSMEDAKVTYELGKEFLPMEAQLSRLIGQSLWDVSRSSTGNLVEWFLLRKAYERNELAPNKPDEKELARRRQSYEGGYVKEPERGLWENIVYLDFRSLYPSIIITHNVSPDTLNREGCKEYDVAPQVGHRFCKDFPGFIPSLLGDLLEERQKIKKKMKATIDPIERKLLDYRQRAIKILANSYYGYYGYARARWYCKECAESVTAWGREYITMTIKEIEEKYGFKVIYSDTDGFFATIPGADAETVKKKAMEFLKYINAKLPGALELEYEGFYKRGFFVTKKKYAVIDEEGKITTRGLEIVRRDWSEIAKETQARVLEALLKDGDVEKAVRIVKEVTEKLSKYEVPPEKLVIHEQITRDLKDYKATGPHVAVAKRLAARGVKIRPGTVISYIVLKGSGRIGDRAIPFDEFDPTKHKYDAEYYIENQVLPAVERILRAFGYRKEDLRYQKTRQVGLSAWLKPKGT

Row | Structure (SMILES) | amplification of target DNA (EX-Taq DNA polymerase) | amplification of target DNA (nPfu DNA polymerase [1]) | betaine concentration at which the amount of amplification was greatest (KOD-plus DNA polymerase) [M] | betaine concentration giving an increased amount of amplification of the target DNA (KOD-plus DNA polymerase) [M] | amplification of target DNA (electrophoresis pattern) (nPfu DNA polymerase [2])
1 | C[N+](C)(C)CC(=O)[O-] [betaine, trimethylglycine] | an increase in amplification amount was observed | amplification of the target DNA was observed | 1.5 | 0.5 to 1.5 | –
2 | O=C([O-])C(=O)[O-].[K+].[K+] [potassium oxalate] | – | – | – | – | amplification of the target DNA observed
